We go through one compound from patent US20250090615A1, “MULTIVITAMIN FOR AUXILIARY REGULATION OF BLOOD PRESSURE AND PREPARATION METHOD AND APPLICATION THEREOF” (Changde Jizhi Biological Technology Co., Ltd, priority 2023, published 2025).

In the assay the test system is spontaneously hypertensive rats. The experiment in a line: Effects on spontaneously hypertensive rats (noninvasive tail artery systolic blood pressure). It counts as in vivo, rat. Particulars: 2-month-old spontaneously hypertensive rats; intragastric once a day for 6 weeks; amlodipine besylate tablets 0.05 mg/kg, multivitamin 600 mg/kg; measured 3 hours after last administration; mean ± spread, n=10.

Description: Experimental animals are 2-month-old spontaneously hypertensive rats.
Experimental methods are as follows. Spontaneous hypertensive rats are taken and randomly divided into a model group and respective experimental groups. Specifically, in experimental group 1, amlodipine besylate tablets are given by intragastric administration at a dose of 0.05 milligrams per kilogram (mg/kg) once a day for 6 weeks. In experimental groups 2-9, amlodipine besylate tablets are given by intragastric administration at a dose of 0.05 mg/kg, and the products of the embodiments or comparative embodiments are given by intragastric administration at a dose of 600 mg/kg once a day for 6 weeks. The model group is given the same volume of distilled water once a day for 6 weeks. At 3 hours after the last administration, systolic blood pressure data are obtained on the computer through the software of noninvasive tail artery blood pressure measuring instrument. Blood pressure of each rat is measured 6-10 times each time, and the mean value is taken as the measured systolic blood pressure of the rat.

For the compound `CCOC(=O)C1=C(COCCN)NC(C)=C(C(=O)OC)C1c1ccccc1Cl` (stereo not shown) [Experimental group 1, amlodipine besylate], the “6 weeks 3 h systolic blood pressure” value is 160.29 ± 2.46.
